Laboratory results taken from patent EP2236511A2, “LIGANDS OF ALPHA-ADRENOCEPTORS AND OF DOPAMINE, HISTAMINE, IMIDAZOLINE AND SEROTONIN RECEPTORS AND THE USE THEREOF” (priority 2007, dated 2009).
Counter-ions that a name gives are not always drawn. Like-named read-outs stand apart in the source and are kept apart here.

Key:
male mice of BALB/c line = experiment: Passive Avoidance of mice in the Shuttle Chamber, memory disturbed by Scopolamine; format: in vivo; settings: Scopolamine 0.3 mg/kg, injected 30 minutes before training; figures 1-3
Protocol: Example 14. […] A shuttle chamber (Ugo Basile, Italy) consisted of two sections was used. […] The sections were connected through a hole which could be overlapped by a vertical door. The floor was made of transverse metal bars on which DC current impulses could be fed. Experiments were carried out in aged male mice of BALB/c line weighing 20-24 grams.
Each group consisted of at least 8 animals. Animal was placed in light section, and latent period of the first entry into dark chamber was registered. Then the vertical door was closed and the animal was punished by 0.6 mA DC current for 3 seconds. After that it was taken back to its homecage. In 22-24 hours the same animal was placed again in light section of the shuttle chamber and latent period of its first entry into dark section, the total time of its stay in light section, and the number of entries into dark section, were registered. Each monitoring lasted for 5 minutes.
Testing was carried out during the day time in isolated laboratory using white noise at level of about 70 decibel above human hearing threshold.
Scopolamine causes the disturbance of training (memory loss) that results in […].

human α1D receptor = target: T1, human α1D receptor (Homo sapiens, UniProt P25100); experiment: Radioligand binding to adrenergic receptor α1D ([3H] Prazosin, HEK-293 membranes); settings: read-out: α-Adrenoceptor, % inhibition α1D
T1 construct: expressed in transfected cells; host or cells: HEK-293
T1 sequence (P25100 1-572): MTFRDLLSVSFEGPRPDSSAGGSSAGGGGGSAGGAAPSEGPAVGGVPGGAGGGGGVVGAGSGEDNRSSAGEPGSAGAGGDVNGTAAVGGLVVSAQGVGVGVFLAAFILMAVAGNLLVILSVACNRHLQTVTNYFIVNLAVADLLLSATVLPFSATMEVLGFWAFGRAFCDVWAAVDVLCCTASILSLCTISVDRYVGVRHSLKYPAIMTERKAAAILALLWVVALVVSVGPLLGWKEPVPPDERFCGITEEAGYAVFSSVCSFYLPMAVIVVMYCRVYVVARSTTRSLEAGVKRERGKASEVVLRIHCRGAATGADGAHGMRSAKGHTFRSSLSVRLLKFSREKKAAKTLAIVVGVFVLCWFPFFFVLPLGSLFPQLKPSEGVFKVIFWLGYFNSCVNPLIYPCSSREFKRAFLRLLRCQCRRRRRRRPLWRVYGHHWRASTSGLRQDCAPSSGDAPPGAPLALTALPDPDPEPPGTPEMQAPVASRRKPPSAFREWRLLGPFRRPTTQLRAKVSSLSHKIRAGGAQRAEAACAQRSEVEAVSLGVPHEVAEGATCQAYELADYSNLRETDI
Excerpt: 6-C. […] For this purpose sDNA of human α1D receptor is expressed in HEK-293 cells, as it was described in [TL Theroux, TA Esbenshade, RD Peavy and KP Minneman. Coupling efficiencies of human alpha 1-adrenergic receptor subtypes: titration of receptor density and responsiveness with inducible and repressible expression vectors. Mol Pharmacol.; 50: 1376-1387, 1996]. […] Characterization of an α1D-adrenoceptor mediating the contractile response of rat aorta to noradrenaline. […] Prazosin is used as positive control.

human H1 receptor = target: T2, human H1 receptor (Homo sapiens, UniProt P35367); experiment: Radioligand binding to histamine receptor H1 ([3H] Pyrilamine, CHO-K1 membranes)
T2 construct: expressed in transfected cells; host or cells: CHO-K1
Excerpt: Biochem Biophys Res Comm. 197(3): 1601-1608, 1993]. […] Biochem Biophys Res Comm. 197(3): 1601-1608, 1993].
Pyrilamine is used as positive control.

human H2 receptor = target: T3, human H2 receptor (Homo sapiens, UniProt P25021); experiment: Radioligand binding to histamine receptor H2 ([125I] Aminopotentidine, CHO-K1 membranes); settings: read-out: Histamine receptors, % inhibition H2
T3 construct: expressed in transfected cells; host or cells: CHO-K1
Excerpt: Proc Natl Acad Sci USA. 87(5): 1658-1662, 1990]. […] Proc Natl Acad Sci USA. 87(5): 1658-1662, 1990]. […] Tiotidine is used as positive control.

[1] = target: T4, recombinant human 5-HT2A receptor (Homo sapiens, UniProt P28223); experiment: Radioligand binding to serotonin receptor 5-HT2A ([3H] Ketanserin, CHO-K1 membranes)
T4 construct: expressed in transfected cells; host or cells: CHO-K1
Excerpt: 9-C. […] J Neurochem. […] Ketanserin is used as positive control.

[2] = target: T5, recombinant human 5-HT2B receptor (Homo sapiens, UniProt P41595); experiment: Radioligand binding to serotonin receptor 5-HT2B ([3H] Lysergic acid diethylamide, CHO-K1 membranes)
T5 construct: expressed in transfected cells; host or cells: CHO-K1
Protocol: For this purpose membrane species are prepared from CHO-K1 cells comprising recombinant human 5-HT2B receptor by homogenization of recombinant cells in glass homogenizer with the subsequent separation of plasmatic membranes from cell nuclei, mitochondrias and cell wreckages by differential centrifugation. […] After incubation the samples are filtered in vacuo on glass-microfiber filters G/F (Millipor, USA), filters are washed three times with cold solution of medium and radioactivity is measured by scintillation counter MicroBeta 340 (Perkin Elmer, USA). […] Ketanserin is used as positive control. The tested compounds' binding to the receptor is determined by their ability to displace the radioligand and is expressed in percent of displacement (%I). Values of %I are calculated according to the following equation: %I = (TA-CA)/(TA-NA)*100, [formula] wherein: TA - is the overall radioactivity in the presence of radioligand only, CA - is the radioactivity in the presence of radioligand and tested compound and NA - is the radioactivity in the presence of radioligand and Serotonin (10 µM).

[3] = target: T6, recombinant human 5-HT2C receptor (Homo sapiens, UniProt P28335); experiment: Radioligand binding to serotonin receptor 5-HT2C ([3H] Mesulergine, CHO-K1 membranes); settings: read-out: 5-HT2C % inhibition
T6 construct: expressed in transfected cells; host or cells: CHO-K1
T6 sequence (P28335 33-458): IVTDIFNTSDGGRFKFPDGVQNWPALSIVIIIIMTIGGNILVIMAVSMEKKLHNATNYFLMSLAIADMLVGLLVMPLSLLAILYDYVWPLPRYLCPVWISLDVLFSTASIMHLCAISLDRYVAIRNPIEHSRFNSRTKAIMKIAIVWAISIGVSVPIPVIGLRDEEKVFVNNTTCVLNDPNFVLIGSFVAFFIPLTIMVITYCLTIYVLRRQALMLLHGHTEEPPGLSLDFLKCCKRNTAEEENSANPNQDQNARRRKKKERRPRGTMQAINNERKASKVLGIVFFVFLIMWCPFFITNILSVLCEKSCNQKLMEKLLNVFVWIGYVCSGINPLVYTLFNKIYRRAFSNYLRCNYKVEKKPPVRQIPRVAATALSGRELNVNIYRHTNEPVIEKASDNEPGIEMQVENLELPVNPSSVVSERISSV
Excerpt: J Neurochem. 69: 1449 - 1458, 1997]. […] SB242084 is used as positive control.

[4] = target: T7, recombinant human 5-HT6 receptor (Homo sapiens, UniProt P50406); experiment: Radioligand binding to serotonin receptor 5-HT6 ([3H] Lysergic acid diethylamide, HeLa membranes); settings: for inhibition at 1 µM: read-out: 5-HT6 % inhibition
T7 construct: expressed in transfected cells; host or cells: HeLa
Excerpt: Mol Pharmacol. 43:320-327, 1993]. […] Methiothepin is used as positive control.

imidazoline receptor I2 = experiment: Radioligand binding to imidazoline receptor I2 ([3H] Idazoxan, rat brain membranes); settings: 10 µM ligand
Protocol: For this purpose membrane species are prepared from rat (Wistar) brain homogenates by homogenization of them in glass homogenizer with the subsequent separation of plasmatic membranes from cell nuclei, mitochondrias and cell wreckages by differential centrifugation. […] After incubation the samples are filtered in vacuo on glass-microfiber filters G/F (Millipor, USA), filters are washed three times with cold solution of medium and radioactivity is measured by scintillation counter MicroBeta 340 (Perkin Elmer, USA). […] Idazoxan is used as positive control.
The tested compounds' binding to the receptor is determined by their ability to displace the radioligand and expressed in percent of displacement (%I). Values of %I are calculated according to the following equation: %I = (TA-CA)/(TA-NA)*100, [formula] wherein: TA - is the overall radioactivity in the presence of radioligand only, CA - is the radioactivity in the presence of radioligand and tested compound and NA - is a radioactivity in the presence of radioligand and Idazoxan (1 µM).

adrenergic receptor α1A = target: T8, adrenergic receptor α1A (Rattus norvegicus, UniProt P43140); experiment: Radioligand binding to adrenergic receptor α1A ([3H] Prazosin, rat submaxillary gland membranes); settings: read-out: α-Adrenoceptor, % inhibition α1A
T8 construct: membrane species from rat submaxillary glands (rat of Wistar breed) are prepared; from tissue; host or cells: rat (Wistar) submaxillary gland
T8 sequence (P43140 1-466): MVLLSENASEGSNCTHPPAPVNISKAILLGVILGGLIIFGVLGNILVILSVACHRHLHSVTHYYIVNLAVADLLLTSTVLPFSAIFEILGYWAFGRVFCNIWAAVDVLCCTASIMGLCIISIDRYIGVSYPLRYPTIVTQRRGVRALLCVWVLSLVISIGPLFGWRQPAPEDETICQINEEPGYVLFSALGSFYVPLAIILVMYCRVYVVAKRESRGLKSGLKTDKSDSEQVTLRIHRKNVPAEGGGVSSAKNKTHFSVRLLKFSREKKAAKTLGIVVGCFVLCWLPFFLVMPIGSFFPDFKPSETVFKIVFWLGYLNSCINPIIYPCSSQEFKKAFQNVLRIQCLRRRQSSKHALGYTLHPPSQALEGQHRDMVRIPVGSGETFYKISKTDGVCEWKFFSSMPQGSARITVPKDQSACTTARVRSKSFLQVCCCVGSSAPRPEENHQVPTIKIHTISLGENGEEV
Protocol: Determination of investigated compounds' binding to α1A receptor was carried out according to the method described in [Michel AD, Loury DN and Whiting R1. Identification of a single α1A-adrenoceptor corresponding to the α1A-subtype in rat submaxillary gland. […] Prazosin is used as positive control.

adrenergic receptor α1B = target: T9, adrenergic receptor α1B (Rattus norvegicus, UniProt P15823); experiment: Radioligand binding to adrenergic receptor α1B ([3H] Prazosin, rat liver membranes); settings: read-out: α-Adrenoceptor, % inhibition α1B
T9 construct: membrane species from rat liver (rat of Wistar breed) are prepared; from tissue; host or cells: rat (Wistar) liver
T9 sequence (P15823 1-515): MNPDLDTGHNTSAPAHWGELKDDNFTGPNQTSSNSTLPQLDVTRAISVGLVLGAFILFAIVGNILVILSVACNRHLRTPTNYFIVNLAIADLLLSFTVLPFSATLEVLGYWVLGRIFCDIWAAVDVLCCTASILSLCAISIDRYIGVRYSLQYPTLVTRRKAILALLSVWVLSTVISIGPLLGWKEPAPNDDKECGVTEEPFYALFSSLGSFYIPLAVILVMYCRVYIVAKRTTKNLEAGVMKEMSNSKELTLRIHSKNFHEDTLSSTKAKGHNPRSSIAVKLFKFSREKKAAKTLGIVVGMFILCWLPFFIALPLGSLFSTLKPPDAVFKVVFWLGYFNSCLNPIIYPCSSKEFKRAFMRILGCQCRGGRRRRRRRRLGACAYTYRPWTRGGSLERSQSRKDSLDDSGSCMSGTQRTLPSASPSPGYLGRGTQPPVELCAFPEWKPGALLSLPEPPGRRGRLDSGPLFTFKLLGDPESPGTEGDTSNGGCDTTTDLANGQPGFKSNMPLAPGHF
Excerpt: Species heterogeneity of hepatic α1A-, α1B-, and α1C-subtypes. Biochem Biophys Res Commun. […] Prazosin is used as positive control.

human α2A receptor = target: T10, human α2A receptor (Homo sapiens, UniProt P08913); experiment: Radioligand binding to adrenergic receptor α2A ([3H] MK-912, Sf9 membranes); settings: read-out: α-Adrenoceptor, % inhibition α2A
T10 construct: expressed in transfected cells; host or cells: Sf9
T10 sequence (P08913 1-465): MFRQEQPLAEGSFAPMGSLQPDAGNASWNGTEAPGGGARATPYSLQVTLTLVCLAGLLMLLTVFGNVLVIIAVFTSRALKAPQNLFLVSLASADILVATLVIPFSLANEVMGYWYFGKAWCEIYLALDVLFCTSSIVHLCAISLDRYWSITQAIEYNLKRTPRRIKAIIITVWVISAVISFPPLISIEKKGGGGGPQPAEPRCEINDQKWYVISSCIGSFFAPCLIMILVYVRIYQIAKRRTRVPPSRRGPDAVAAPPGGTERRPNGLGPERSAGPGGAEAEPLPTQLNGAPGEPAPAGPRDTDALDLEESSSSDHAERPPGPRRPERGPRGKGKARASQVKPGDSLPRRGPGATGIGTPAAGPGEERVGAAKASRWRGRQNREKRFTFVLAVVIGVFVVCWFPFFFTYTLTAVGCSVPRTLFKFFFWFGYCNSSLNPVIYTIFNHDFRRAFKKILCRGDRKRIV
Excerpt: For this purpose sDNA of human α2A receptor is expressed in Sf9 cells, as described in [Uhlen S, Porter AC and Neubig RR. […] J Pharmacol ExpTher. […] J Pharmacol ExpTher. […] Yohimbine is used as positive control.

T7 sequence (P50406 whole entry): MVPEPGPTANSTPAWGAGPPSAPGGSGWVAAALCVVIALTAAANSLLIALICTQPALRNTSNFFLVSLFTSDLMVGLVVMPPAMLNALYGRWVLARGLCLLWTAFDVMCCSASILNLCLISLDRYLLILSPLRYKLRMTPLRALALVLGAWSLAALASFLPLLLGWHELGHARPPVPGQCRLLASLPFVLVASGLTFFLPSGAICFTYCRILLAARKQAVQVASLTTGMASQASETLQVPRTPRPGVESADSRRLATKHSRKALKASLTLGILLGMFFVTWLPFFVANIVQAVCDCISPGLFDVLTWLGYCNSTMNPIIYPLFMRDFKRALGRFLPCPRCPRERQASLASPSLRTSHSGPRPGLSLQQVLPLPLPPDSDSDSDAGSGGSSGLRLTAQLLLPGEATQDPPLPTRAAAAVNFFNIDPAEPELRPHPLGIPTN
T2 sequence (P35367 whole entry): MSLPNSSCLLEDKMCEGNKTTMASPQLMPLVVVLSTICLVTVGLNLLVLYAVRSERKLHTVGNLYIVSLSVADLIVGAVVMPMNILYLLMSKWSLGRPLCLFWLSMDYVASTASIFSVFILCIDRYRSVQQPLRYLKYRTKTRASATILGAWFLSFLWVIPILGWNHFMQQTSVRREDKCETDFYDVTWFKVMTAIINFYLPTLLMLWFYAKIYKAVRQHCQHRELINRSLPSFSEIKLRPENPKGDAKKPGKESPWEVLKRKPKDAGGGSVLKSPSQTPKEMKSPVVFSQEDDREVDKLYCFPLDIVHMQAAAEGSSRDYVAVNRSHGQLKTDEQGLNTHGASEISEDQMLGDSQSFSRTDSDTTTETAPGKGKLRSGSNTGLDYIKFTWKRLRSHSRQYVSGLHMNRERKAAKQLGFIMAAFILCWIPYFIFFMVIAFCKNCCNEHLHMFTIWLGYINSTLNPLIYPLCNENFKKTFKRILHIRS
T3 sequence (P25021 whole entry): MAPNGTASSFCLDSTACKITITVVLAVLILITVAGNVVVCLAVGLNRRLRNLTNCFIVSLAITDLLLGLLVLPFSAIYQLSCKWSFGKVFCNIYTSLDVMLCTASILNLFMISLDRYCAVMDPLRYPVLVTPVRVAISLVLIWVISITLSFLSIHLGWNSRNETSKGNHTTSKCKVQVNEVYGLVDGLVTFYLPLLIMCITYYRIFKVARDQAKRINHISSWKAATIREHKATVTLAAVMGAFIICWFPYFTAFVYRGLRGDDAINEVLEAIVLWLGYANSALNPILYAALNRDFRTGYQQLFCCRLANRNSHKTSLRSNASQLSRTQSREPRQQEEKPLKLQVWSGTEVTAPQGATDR
T5 sequence (P41595 whole entry): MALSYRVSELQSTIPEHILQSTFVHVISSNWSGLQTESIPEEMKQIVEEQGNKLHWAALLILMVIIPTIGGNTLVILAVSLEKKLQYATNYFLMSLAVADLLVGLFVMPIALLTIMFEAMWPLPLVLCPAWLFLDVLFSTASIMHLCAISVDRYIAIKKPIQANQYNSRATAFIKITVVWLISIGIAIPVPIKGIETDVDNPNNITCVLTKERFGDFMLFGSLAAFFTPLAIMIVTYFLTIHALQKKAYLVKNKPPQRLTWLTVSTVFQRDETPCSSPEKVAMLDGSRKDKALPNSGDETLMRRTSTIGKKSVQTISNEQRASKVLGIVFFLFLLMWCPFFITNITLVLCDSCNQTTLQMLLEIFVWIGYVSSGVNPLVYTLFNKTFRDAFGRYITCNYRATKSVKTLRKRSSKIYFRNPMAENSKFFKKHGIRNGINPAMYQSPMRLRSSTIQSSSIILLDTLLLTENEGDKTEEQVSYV
T4 sequence (P28223 whole entry): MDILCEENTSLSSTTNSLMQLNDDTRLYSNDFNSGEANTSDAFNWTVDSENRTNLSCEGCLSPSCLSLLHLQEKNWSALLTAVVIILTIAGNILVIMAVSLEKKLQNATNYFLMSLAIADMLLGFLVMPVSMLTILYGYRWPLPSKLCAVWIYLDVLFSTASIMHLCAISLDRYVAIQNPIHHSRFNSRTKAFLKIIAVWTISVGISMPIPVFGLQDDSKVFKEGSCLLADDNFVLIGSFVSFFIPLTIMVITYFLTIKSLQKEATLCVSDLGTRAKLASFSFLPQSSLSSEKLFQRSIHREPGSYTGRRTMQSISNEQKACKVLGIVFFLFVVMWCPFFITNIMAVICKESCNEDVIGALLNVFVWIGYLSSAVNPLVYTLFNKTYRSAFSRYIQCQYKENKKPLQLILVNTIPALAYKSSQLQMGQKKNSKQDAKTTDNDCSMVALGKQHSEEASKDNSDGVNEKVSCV

COc1ccc2c(c1)c1c(n2CCc2ccccn2)CCN(C)C1 [1.1.2(2-4)·2HCl]
enhancement of memory disturbed by Scopolamine (male mice of BALB/c line): improve memory

Cc1ccc(S(=O)(=O)n2c3c(c4cc(C)ccc42)CN(C)CCC3)cc1 [1.8.1(3)·HCl]
inhibition at 10 µM (human α1D receptor): 55%
inhibition at 10 µM (human H1 receptor; read-out: Histamine receptors, % inhibition H1, 10 µM ligand): 95%
inhibition at 10 µM (human H2 receptor): 82%
nH ([1]; 5-HT2A): 1.01
inhibition at 1 µM ([1]; ligand concentration 1 µM): 100%
nH ([2]; 5-HT2B): 0.784
inhibition at 1 µM ([2]; read-out: 5-HT2B % inhibition): 101%
inhibition at 1 µM [3]: 90%
IC50 [4]: 535 nM
Ki [4]: 307 nM
nH ([4]; 5-HT6): 1.07
nH ([4]; last block of Table 11: receptor printed 5-HT6 in r18, cell blank in r19-r21): 0.665
inhibition at 1 µM [4]: 93%
% inhibition (imidazoline receptor I2): 17%

Cc1ccc2c(c1)c1c(n2CCc2cccnc2)CCCN(C)C1 [1.2.2(3-2)·2HCl]
inhibition at 10 µM (adrenergic receptor α1A): 61%
inhibition at 10 µM (adrenergic receptor α1B): 75%
inhibition at 10 µM (human α1D receptor): 60%
inhibition at 10 µM (human α2A receptor): 71%
inhibition at 1 µM [3]: 90%
inhibition at 1 µM [4]: 79%
% inhibition (imidazoline receptor I2): 63%

Cc1ccc2c(c1)c1c(n2CCc2ccc(C)nc2)CCN(C)C1 [1.1.2(4-4)·2CH3SO3H, 2,8-dimethyl-5-[2-(4-methylpyridin-3-yl)ethyl]-1,2,3,4-tetrahydro-1H-pyrido[4,3-b]indole bis-methylsulfonate]
Histamine receptors, % inhibition H1 (human H1 receptor; 10 µM ligand, 10 µM): 102%
inhibition at 10 µM (human H2 receptor; 10 µM ligand): 99%
